Experimental data published in PubChem BioAssay (NCI).
Where “and” joins values, the source holds several entries; their conditions need not be identical. Equal values may be shown once.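 Briefly, cells in 96-well plates were exposed to five compound concentrations for 48 h, and endpoints were estimated by linear interpolation. GI50 = concentration required for 50% inhibition of growth. TGI: concentration producing complete growth inhibition.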

Tests used:
Test in all cases: NCI anticancer screen, dose series, 48 h
ACHN renal = tested on: ACHN renal
CCRF-CEM leukemia = tested on: CCRF-CEM leukemia
COLO 205 colon = tested on: COLO 205 colon
K-562 leukemia = tested on: K-562 leukemia
MALME-3M melanoma = tested on: MALME-3M melanoma
OVCAR-8 ovarian = tested on: OVCAR-8 ovarian
PC-3 prostate = tested on: PC-3 prostate
SF-268 CNS = tested on: SF-268 CNS
SNB-75 CNS = tested on: SNB-75 CNS
UO-31 renal = tested on: UO-31 renal
NCI/ADR-RES ovarian = tested on: NCI/ADR-RES ovarian

Row | SMILES | TGI (ACHN renal) | TGI (CCRF-CEM leukemia) | TGI (COLO 205 colon) | TGI (K-562 leukemia) | TGI (MALME-3M melanoma) | TGI (OVCAR-8 ovarian) | TGI (PC-3 prostate) | TGI (SF-268 CNS) | TGI (SNB-75 CNS) | TGI (UO-31 renal) | TGI (NCI/ADR-RES ovarian) | GI50 (CCRF-CEM leukemia) | GI50 (K-562 leukemia) | GI50 (SNB-75 CNS) | GI50 (UO-31 renal)
1 | Cc1nnc2n(c1=O)CCN2C | > 100 µM | > 100 µM | > 100 µM | > 100 µM | > 100 µM | > 100 µM | > 100 µM | > 100 µM | > 100 µM | > 100 µM | – | – | – | – | –
2 | CCCCCCCCCC(=O)N[C@@H](c1ccco1)[C@@H](O)C(=O)O[C@H]1C[C@@]2(O)[C@@H](OC(=O)c3ccccc3)[C@@H]3[C@]4(OC(C)=O)CO[C@@H]4C[C@H](O)[C@@]3(C)C(=O)[C@H](OC(C)=O)C(=C1C)C2(C)C | > 22.7 µM | – | 0.0335 µM | > 50 µM | 12.4 µM | 11 µM | > 35.1 µM | 24.5 µM | – | 12.7 µM | 20.5 µM | – | – | – | –
3 | COc1ccc(C(Cc2ccccc2)C2NC(=S)NC2=O)cc1 (centres undefined) | > 25 µM | > 25 µM | > 25 µM | > 25 µM | > 25 µM | > 25 µM | > 25 µM | > 25 µM | > 25 µM | > 25 µM | > 25 µM | – | – | – | –
4 | CC1(C)CC2(C)CC1CC2(O)c1ccccc1 (centres undefined) | > 100 µM | > 100 µM | > 100 µM | > 100 µM | > 100 µM | > 100 µM | > 100 µM | > 100 µM | > 100 µM | > 100 µM | – | – | – | – | –
5 | Cc1ccc(S(=O)(=O)NC(=O)NC(CCCCN=C(N)N)C(=O)O)cc1 (centres undefined) | > 100 µM | > 100 µM | > 100 µM | > 100 µM | > 100 µM | > 100 µM | > 100 µM | > 100 µM | > 100 µM | > 100 µM | > 100 µM | – | – | – | –
6 | CC(=O)NC1=C(NCCCl)C(=O)c2ccccc2C1=O | > 100 µM | 66 µM | > 100 µM | > 100 µM | 27.1 µM | 52.4 µM | 96.2 µM | > 100 µM | > 100 µM | – | 74 µM | – | – | – | –
7 | Cc1ccc(-n2cc(-c3ccc(Cl)cc3)c3c(NN)ncnc32)cc1 | 14.3 µM | 2.52 µM | 11.2 µM | 12 µM | 21.5 µM | 7.02 µM | 56.1 µM | 17.8 µM | 7.6 µM | 12.3 µM | 15.3 µM | – | – | – | –
8 | O=c1[nH]c(=O)n(COCCO)c2ccsc12 | > 100 µM | > 100 µM | > 100 µM | > 100 µM | > 100 µM | > 100 µM | > 100 µM | > 100 µM | > 100 µM | > 100 µM | > 100 µM | – | – | – | –
9 | C=C1[C@@](C)([C@@H]2CCCS2)[C@H]2C(C)=C[C@]1(C)n1c(=O)n(-c3ccccc3)c(=O)n12 | > 100 µM | > 100 µM | > 100 µM | – | > 100 µM | – | > 100 µM | > 100 µM | > 100 µM | > 100 µM | > 100 µM | – | – | – | –
10 | O=CC(O)C(O)C(O)C1CNC(=S)O1 (centres undefined) | > 100 µM | > 100 µM | > 100 µM | > 100 µM | > 100 µM | > 100 µM | > 100 µM | > 100 µM | > 100 µM | > 100 µM | > 100 µM | – | – | – | –
11 | COC(=O)c1c(C)cccc1C1CN=NC12Cc1ccc(C)c(C)c1C2=O (centres undefined) | > 100 µM | > 100 µM | – | > 100 µM | > 100 µM | > 100 µM | – | > 100 µM | > 100 µM | > 100 µM | > 100 µM | – | – | – | –
12 | CC12CCCCC1=[N+]([O-])C(C)(C)N2O (centres undefined) | > 100 µM | > 100 µM | > 100 µM | – | > 100 µM | > 100 µM | > 100 µM | > 100 µM | – | > 100 µM | > 100 µM | – | – | – | –
13 | CCOC(=O)NNC(=O)NCc1ccccc1CNC(=O)NNC(=O)OCC | – | > 100 µM | > 100 µM | > 100 µM | > 100 µM | > 100 µM | > 100 µM | > 100 µM | > 100 µM | > 100 µM | > 100 µM | – | – | – | –
14 | COC(=O)c1c(CC(Cc2ccc3c(c2)CCCC3)C(=O)OC)ccc2c1CCCC2 (centres undefined) | > 100 µM | > 100 µM | > 100 µM | > 100 µM | > 100 µM | > 100 µM | > 100 µM | > 100 µM | – | > 100 µM | > 100 µM | – | – | – | –
15 | O=C1CC(C(OCc2ccccc2)C(OCc2ccccc2)C(COCc2ccccc2)OCc2ccccc2)CC(=O)N1 (centres undefined) | > 100 µM | 80.4 µM and > 75 µM | > 100 µM | > 100 µM | > 100 µM | > 100 µM | > 100 µM | > 100 µM | > 100 µM | > 100 µM | > 100 µM | 19.4 µM and 64.4 µM | > 100 µM and 41 µM | 29.7 µM and > 75 µM | > 100 µM and 45.7 µM
16 | COC(=O)NNC(c1ccc(Cl)cc1)c1ccc(Cl)cc1 | – | 54.1 µM | 38 µM | 53 µM | 43.8 µM | 42.4 µM | 30.5 µM | 49 µM | 69 µM | 25.2 µM | 39.8 µM | – | – | – | –
17 | CCOc1ccc(N=NC2C(=O)N(C(=O)CC(=O)Nc3ccccc3)N=C2C)cc1 (centres undefined) | > 100 µM | > 100 µM | > 100 µM | – | > 100 µM | > 100 µM | > 100 µM | > 100 µM | > 100 µM | > 100 µM | > 100 µM | – | – | – | –
18 | CC(=O)OC1C2CCC3C(C)(O)C4CC(O)C(C)(C)C4(O)C(O)CC13CC2(C)O (centres undefined) | > 100 µM | > 100 µM | > 100 µM | > 100 µM | – | > 100 µM | > 100 µM | > 100 µM | > 100 µM | > 100 µM | > 100 µM | – | – | – | –
19 | N=C(N)SCCC(=O)CCSC(=N)N | > 100 µM | > 100 µM | > 100 µM | > 100 µM | – | > 100 µM | > 100 µM | > 100 µM | > 100 µM | > 100 µM | > 100 µM | – | – | – | –
20 | CC1(C)C(CCO)CC1n1ccc(=O)[nH]c1=O (centres undefined) | > 100 µM | > 100 µM | – | 72.4 µM | – | – | > 100 µM | > 100 µM | > 100 µM | > 100 µM | > 100 µM | – | – | – | –
